Test results published in paper PMC9233891 (Bioorganic Chemistry, 2022).

Columns and labels:
ancestral SARS-CoV-2 = test: microbe, parasite or virus in culture; format: cell-based; conditions: Severe acute respiratory syndrome coronavirus 2, Vero, 24 h, read-out: IC50, inhibition of SARS-CoV-2 infection
[1] = test system: S protein / ACE2 interaction; conditions: previous study; cited from earlier work

CCC(CC)COC(=O)[C@H](C)N[P@](=O)(OC[C@H]1O[C@@](C#N)(c2ccc3c(N)ncnn23)[C@H](O)[C@@H]1O)Oc1ccccc1 [remdesivir]
IC50 (ancestral SARS-CoV-2): 4.67 µM

CCN(CC)CCCC(C)Nc1ccnc2cc(Cl)ccc12 (stereo not drawn) [chloroquine]
IC50 (ancestral SARS-CoV-2): 5.56 µM

C[C@@H]1O[C@@H](O[C@H]2[C@H](OC(=O)[C@]34CCC(C)(C)C[C@H]3C3=CC[C@@H]5[C@@]6(C)C[C@H](O)[C@H](O[C@@H]7O[C@H](CO)[C@@H](O)[C@H](O)[C@H]7O)C(CO)(CO)[C@@H]6CC[C@@]5(C)[C@]3(C)C[C@H]4O)OC[C@H](O)[C@@H]2O)[C@H](O)[C@H](O)[C@H]1O[C@@H]1OC[C@@H](O)[C@H](O[C@@H]2OC[C@](O)(CO)[C@H]2O)[C@H]1O [Platycodin D, platycodin D]
inhibition of the interaction between the S protein and ACE2 [1]: does not inhibit the interaction between the S protein and ACE2
